The source of these data is publication PMC5540273, “Progress towards a public chemogenomic set for protein kinases and a call for contributions” (PLoS ONE, 2017).

Holding throughout (assay): KINOMEscan competition binding
Assay [1] addresses T1, ADCK4 (Homo sapiens, UniProt Q96D53).
T1 sequence (Q96D53 1-544): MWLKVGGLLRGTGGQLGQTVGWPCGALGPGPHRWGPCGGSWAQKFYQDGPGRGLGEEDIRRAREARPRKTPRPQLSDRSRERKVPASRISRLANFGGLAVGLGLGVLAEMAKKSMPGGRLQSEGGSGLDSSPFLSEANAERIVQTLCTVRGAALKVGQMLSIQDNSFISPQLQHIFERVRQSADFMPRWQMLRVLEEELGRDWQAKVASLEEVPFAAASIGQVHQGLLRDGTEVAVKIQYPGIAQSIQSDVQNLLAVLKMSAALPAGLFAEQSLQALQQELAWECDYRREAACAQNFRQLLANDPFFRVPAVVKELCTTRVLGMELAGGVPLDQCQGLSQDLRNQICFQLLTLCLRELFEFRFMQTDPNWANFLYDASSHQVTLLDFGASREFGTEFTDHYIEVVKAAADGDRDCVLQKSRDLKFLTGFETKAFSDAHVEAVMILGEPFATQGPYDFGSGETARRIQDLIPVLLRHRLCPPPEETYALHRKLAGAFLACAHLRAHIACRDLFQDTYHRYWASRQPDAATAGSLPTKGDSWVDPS
Conditions: read-out: %Inh ADCK4.

The target in assay [2] is CDC2L5 (Homo sapiens, UniProt Q14004). The settings on record: read-out: %Inh CDC2L5.
CDC2L5, sequence (Q14004 whole entry): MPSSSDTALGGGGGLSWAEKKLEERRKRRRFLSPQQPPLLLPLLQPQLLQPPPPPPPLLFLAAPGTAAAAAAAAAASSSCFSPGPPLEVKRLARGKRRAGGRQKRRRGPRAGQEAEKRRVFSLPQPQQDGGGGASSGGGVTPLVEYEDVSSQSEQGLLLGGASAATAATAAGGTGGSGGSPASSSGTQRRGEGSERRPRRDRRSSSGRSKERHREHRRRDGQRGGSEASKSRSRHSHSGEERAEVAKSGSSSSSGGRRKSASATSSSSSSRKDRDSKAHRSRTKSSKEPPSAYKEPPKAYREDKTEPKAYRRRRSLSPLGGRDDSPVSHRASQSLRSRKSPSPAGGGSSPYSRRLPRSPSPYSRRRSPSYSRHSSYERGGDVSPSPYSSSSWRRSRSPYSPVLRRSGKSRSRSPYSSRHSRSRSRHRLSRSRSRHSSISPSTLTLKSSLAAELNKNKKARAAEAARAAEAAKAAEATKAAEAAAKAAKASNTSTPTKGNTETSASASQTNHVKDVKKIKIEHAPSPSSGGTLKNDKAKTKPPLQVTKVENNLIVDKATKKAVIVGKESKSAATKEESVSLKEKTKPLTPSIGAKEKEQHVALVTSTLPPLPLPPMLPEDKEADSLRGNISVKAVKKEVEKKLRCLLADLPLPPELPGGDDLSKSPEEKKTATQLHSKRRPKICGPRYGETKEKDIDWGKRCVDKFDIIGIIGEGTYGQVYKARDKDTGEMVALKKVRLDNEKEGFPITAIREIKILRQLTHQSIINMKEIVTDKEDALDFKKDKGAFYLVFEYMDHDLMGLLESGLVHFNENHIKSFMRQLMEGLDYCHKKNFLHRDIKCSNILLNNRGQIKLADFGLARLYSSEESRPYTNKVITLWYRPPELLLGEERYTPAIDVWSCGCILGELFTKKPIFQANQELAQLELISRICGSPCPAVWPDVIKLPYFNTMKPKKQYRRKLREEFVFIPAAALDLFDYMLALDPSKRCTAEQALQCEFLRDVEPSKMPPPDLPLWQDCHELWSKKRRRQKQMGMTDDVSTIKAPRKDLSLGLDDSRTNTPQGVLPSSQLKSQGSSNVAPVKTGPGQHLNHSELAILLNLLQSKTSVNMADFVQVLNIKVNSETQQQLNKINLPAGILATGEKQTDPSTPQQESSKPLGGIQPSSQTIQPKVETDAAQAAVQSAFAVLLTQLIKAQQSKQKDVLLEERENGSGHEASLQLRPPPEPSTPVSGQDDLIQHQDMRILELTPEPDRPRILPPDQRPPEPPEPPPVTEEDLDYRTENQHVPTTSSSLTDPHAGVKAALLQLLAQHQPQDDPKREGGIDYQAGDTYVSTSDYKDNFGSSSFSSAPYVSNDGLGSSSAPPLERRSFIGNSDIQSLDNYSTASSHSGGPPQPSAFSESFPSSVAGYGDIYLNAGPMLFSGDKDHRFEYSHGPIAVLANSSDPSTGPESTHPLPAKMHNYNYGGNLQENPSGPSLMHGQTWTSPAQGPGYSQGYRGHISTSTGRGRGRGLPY
The target in assay [3] is CDK2 (Homo sapiens, UniProt P24941). Conditions: read-out: %Inh CDK2.
The target of assay [4] is CLK2 (Homo sapiens, UniProt P49760). Conditions: read-out: %Inh CLK2.
CLK2, sequence (P49760 whole entry): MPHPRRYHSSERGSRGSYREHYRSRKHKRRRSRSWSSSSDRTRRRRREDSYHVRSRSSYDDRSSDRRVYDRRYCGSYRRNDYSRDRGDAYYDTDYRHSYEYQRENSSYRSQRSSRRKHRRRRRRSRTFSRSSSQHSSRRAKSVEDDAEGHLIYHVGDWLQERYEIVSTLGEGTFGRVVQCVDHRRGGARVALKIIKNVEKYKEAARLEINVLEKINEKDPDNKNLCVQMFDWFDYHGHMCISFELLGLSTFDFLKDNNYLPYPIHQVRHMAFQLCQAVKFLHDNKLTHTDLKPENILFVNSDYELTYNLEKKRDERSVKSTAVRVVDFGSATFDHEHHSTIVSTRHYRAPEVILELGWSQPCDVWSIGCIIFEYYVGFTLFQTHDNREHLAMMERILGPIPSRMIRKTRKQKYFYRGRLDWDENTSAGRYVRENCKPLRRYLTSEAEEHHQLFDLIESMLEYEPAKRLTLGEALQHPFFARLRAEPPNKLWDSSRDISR
In assay [5] the target is T2, EPHA6 (Homo sapiens, UniProt Q9UF33).
T2 sequence (Q9UF33 23-1036): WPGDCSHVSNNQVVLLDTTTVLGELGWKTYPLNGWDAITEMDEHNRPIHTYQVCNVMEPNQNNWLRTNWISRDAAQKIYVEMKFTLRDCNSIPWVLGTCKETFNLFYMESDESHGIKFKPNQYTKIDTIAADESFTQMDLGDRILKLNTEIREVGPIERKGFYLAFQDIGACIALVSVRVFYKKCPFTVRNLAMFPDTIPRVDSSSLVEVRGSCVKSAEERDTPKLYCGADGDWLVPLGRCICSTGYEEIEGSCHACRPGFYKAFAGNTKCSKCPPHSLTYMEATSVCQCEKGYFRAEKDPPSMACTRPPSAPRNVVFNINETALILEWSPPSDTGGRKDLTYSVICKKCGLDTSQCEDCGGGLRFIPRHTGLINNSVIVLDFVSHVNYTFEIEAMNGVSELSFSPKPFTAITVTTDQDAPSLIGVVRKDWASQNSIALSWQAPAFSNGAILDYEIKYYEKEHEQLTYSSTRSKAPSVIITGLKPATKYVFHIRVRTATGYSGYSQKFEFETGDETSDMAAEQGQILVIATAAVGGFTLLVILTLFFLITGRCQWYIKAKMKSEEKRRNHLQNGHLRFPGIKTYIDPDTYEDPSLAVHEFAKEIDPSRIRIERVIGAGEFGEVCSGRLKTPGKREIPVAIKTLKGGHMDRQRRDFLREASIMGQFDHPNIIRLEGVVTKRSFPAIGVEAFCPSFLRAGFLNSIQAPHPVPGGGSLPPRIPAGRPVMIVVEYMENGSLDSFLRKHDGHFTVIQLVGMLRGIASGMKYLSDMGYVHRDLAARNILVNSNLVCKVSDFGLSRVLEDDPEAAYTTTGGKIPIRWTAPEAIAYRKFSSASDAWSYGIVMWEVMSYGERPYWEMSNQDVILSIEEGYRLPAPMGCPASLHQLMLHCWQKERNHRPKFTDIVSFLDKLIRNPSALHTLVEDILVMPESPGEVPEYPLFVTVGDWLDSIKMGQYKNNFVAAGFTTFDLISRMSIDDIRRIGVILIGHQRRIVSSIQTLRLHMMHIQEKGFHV
Conditions: read-out: %Inh EPHA6.

Assay [6] concerns the target ERBB3 (Homo sapiens, UniProt P21860). Conditions: read-out: %Inh ERBB3.
Assay [7] addresses INSRR (Homo sapiens, UniProt P14616). The settings on record: read-out: %Inh INSRR.
Assay [8] concerns the target T3, IRAK4 (Homo sapiens, UniProt Q9NWZ3).
T3 sequence (Q9NWZ3 1-460): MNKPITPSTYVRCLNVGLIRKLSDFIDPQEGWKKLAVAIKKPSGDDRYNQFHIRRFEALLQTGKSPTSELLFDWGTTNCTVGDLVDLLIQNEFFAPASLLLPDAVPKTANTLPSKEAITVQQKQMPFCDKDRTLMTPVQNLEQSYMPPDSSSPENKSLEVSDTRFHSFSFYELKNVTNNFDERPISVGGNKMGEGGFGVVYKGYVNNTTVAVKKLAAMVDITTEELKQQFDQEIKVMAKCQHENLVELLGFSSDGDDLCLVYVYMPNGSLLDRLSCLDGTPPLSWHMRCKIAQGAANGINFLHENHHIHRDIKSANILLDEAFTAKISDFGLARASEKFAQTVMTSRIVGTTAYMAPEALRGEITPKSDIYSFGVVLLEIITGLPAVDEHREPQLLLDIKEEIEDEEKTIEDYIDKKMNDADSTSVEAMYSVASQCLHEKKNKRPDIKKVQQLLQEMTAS
The settings on record: read-out: %Inh IRAK4.

The target of assay [9] is JAK1(JH1domain-catalytic) (Homo sapiens, UniProt P23458). Conditions: read-out: %Inh JAK1(JH1domain-catalytic).
JAK1(JH1domain-catalytic), sequence (P23458 854-1154 limits assumed): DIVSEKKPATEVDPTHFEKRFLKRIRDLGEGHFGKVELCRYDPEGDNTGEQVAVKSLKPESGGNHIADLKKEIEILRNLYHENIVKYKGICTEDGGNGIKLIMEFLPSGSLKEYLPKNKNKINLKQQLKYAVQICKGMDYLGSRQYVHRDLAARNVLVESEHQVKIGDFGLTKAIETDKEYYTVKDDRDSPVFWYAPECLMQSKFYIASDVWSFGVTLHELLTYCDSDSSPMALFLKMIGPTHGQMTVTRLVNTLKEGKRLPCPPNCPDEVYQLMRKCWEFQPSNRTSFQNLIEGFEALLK

ERBB3, sequence (P21860 20-1342): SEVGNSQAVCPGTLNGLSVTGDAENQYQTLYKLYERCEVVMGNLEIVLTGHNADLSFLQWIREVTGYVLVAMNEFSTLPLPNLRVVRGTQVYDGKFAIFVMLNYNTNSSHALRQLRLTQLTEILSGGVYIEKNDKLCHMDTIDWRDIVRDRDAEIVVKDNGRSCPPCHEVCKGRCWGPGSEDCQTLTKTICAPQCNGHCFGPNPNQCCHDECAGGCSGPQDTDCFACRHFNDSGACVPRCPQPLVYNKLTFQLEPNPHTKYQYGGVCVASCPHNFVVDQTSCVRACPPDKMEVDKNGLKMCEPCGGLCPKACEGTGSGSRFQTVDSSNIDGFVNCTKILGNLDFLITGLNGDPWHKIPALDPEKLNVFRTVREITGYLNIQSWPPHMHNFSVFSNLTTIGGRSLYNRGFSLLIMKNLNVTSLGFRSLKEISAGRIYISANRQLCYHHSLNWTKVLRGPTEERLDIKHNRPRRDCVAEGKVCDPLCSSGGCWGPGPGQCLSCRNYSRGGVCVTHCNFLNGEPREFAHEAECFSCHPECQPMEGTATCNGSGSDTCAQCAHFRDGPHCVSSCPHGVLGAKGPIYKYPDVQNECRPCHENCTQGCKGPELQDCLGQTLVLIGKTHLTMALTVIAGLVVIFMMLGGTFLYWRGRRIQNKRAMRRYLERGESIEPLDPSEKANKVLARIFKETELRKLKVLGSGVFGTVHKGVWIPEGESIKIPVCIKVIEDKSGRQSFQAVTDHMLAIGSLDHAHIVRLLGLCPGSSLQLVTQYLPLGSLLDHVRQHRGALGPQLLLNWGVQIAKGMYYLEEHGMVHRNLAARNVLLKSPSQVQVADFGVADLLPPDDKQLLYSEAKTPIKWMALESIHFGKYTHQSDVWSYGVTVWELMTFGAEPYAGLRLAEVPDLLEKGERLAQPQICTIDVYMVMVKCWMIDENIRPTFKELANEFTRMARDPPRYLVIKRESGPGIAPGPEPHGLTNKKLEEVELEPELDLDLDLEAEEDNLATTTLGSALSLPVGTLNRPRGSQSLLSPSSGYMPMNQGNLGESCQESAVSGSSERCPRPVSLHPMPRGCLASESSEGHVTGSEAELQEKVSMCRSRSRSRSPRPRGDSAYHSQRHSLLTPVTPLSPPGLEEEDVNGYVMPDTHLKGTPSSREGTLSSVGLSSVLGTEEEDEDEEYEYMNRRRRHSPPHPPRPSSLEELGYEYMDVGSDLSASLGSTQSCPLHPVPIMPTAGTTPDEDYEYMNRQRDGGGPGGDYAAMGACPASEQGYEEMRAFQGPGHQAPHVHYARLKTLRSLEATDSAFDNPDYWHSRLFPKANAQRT
INSRR, sequence (P14616 27-1297): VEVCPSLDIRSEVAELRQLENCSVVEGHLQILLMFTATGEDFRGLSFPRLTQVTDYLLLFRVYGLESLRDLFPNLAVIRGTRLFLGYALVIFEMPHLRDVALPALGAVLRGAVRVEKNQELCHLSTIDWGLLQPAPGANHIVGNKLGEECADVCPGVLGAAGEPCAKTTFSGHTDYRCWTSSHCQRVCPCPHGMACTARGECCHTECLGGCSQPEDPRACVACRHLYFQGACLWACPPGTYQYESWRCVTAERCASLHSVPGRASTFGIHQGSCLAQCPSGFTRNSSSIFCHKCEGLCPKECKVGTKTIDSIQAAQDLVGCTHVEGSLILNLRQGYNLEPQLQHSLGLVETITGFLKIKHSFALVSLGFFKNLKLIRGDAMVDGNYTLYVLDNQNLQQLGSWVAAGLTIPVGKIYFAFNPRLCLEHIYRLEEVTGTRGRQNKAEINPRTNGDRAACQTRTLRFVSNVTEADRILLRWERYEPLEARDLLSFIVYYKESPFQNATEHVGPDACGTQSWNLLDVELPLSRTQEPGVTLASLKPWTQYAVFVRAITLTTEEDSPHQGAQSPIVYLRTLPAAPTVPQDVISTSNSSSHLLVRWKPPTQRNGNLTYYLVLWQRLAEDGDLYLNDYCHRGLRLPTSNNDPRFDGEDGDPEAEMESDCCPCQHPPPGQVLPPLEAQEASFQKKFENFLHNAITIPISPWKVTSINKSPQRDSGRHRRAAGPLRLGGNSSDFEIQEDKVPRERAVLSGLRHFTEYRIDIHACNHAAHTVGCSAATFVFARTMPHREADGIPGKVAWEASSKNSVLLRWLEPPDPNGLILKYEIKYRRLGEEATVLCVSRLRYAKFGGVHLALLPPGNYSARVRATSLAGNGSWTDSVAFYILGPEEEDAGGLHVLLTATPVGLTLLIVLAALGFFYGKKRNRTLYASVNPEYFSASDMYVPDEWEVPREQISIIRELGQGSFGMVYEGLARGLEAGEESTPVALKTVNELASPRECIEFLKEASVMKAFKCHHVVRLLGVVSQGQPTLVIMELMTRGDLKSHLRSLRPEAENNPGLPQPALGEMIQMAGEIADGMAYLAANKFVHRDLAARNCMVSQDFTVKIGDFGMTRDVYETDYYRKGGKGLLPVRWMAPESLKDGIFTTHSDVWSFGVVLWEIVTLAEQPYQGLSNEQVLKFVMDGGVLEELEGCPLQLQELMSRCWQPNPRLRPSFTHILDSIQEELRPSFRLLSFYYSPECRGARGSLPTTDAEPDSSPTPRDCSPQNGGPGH

Turning to `O=c1cc(N2CCOCC2)nc2n(Cc3cccc(Cl)c3Cl)c(C3CC3)nn12` [UNC10225469A], the inhibition at 1 µM in assay [1] amounted to 0%; in assay [2] it was 0%; in [3] it was 0%; in [4], 25%; in [5] it was 0%; in assay [6], 9%. Further, the inhibition at 1 µM was determined as 0% in [7], 0% in [8] and 9% in [9].
On to `COc1cccc(OC)c1C(=O)Nc1cccc(-c2nn3ccccc3c2-c2ccnc(Nc3cccc(F)c3)n2)c1` [UNC10225310A], for which the inhibition at 1 µM in assay [1] was found to be 0%; in [2] it was 1%; in assay [3], 0%; in assay [4], 21%; in [5] it was 11%; in assay [6] it was 0%. Also, the inhibition at 1 µM in assay [7], in assay [8] and in [9] was 0% each time.
As for `CS(=O)(=O)Cc1ccc(Nc2nccc(-c3c(-c4cccc(NC(=O)C5CCCCC5)c4)nn4ncccc34)n2)cc1` [UNC10225159A], the inhibition at 1 µM in [1] was determined as 0%; in [2] it was 30%; in assay [3], 0%; in assay [4], 10%; in assay [5], 2%; in assay [6], 22%. For the same compound, the inhibition at 1 µM in assay [7] is 20%; in assay [8], 25%; in assay [9] it was 0%.
For the compound `Cc1ccc(NC(=O)Nc2cccc(C(F)(F)F)c2)cc1` [UNC10225187A], the inhibition at 1 µM in assay [1] was determined as 0%; in assay [2] it was 0%; in assay [3], 0%; in assay [4], 36%; in assay [5], 0%; in assay [6], 17%. Moreover, the inhibition at 1 µM in [7], in [8] and in assay [9] was 0% in each case.
As for `Cn1cc(-c2cnc(N)c3c(-c4ccc5c(c4)CCN5C(=O)Cc4ccccc4)csc23)cn1` [UNC10225012A], the inhibition at 1 µM is 0% in assay [1]; 0% in assay [2]; 0% in assay [3]; 19% in assay [4]; 11% in assay [5]; 4% in [6]. The results for the inhibition at 1 µM in assay [7], in assay [8] and in assay [9] were 13%, 0% and 0%, respectively.
